Assay results as given in article PMC4586081 (Journal of neuroscience research, 2008).

Legend:
[1] = target: α3β2 nAChR (Rattus norvegicus, UniProt P04757+P12390); test: two-electrode voltage clamp, Xenopus oocytes, peak current; type: cell-based
[2] = target: α3β4 nAChR (Rattus norvegicus, UniProt P04757+P12392); test: as above; type: cell-based
Chain of α3β4 nAChR (P04757 26-499): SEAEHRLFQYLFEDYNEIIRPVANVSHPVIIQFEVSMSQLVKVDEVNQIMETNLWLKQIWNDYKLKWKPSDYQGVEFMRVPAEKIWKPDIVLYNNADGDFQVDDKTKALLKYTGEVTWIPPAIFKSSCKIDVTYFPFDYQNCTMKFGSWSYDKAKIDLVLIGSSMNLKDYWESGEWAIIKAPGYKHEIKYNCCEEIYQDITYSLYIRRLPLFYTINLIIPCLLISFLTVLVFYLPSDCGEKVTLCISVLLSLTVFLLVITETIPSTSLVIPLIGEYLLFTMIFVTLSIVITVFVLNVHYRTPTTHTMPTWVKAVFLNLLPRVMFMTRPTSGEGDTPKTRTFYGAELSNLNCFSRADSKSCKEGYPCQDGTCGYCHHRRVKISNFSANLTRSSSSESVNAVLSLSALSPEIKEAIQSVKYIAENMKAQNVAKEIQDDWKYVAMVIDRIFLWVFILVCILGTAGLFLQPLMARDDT
Chain of α3β4 nAChR (P12392 21-495): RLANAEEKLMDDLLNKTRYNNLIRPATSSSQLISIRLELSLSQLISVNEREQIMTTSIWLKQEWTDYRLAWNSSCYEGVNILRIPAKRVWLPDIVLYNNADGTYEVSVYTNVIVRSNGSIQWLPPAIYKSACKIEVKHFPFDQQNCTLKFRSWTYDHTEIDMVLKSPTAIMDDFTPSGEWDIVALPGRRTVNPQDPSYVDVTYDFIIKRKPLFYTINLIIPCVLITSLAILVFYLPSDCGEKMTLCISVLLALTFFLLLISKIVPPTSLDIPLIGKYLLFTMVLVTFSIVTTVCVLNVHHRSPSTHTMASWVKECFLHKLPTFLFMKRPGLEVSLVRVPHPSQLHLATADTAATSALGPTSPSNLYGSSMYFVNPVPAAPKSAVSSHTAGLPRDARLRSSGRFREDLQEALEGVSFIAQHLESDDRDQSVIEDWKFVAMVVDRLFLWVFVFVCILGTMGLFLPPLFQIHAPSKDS

Chain of α3β2 nAChR (P04757 26-499): as the sequence (P04757 26-499) above
Chain of α3β2 nAChR (P12390 25-500): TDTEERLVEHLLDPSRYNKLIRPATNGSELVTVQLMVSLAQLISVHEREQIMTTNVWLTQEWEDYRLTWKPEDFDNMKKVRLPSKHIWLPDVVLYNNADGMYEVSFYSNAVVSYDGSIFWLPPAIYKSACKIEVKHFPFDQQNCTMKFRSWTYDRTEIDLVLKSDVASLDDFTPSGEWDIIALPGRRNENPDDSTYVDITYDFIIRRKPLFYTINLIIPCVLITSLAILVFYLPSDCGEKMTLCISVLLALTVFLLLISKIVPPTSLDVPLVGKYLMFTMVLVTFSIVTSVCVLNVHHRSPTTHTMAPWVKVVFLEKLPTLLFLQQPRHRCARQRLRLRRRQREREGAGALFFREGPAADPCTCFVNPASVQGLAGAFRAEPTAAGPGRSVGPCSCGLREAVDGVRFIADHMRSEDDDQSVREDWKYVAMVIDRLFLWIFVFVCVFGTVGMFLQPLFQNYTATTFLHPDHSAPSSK

Molecule `C[N+]1(C)CCN(c2ccccc2)CC1` [DMPP] has an EC50 [1] of 55 µM and an EC50 [2] of 58 µM.
